Measured values taken from patent publication US8952024B2, “Herbicidal pyrimidone derivatives” (E I du Pont de Nemours and Company, priority 2009, dated 2015).

Key:
Type in all cases: in vivo
[1] = system: large crabgrass (Digitaria sanguinalis); experiment: Test A pre-/postemergence plant response
How it was run: (§1)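 Formulated test chemicals (non-phytotoxic solvent, surfactant) were sprayed onto soil right after planting and simultaneously onto young plants at one to two leaves, 2 to 10 cm tall. Plants stayed in the greenhouse about ten days; injury was then visually scored against untreated controls, from 0 (no effect) to 100 (complete control).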

[2] = system: wheat (Triticum aestivum); experiment: Test A pre-/postemergence plant response
How it was run: as §1

corn (Zea mays) = experiment: Test A pre-/postemergence plant response
How it was run: as §1

[3] = system: giant foxtail (Setaria faberii); experiment: Test A pre-/postemergence plant response
How it was run: as §1

[4] = system: velvetleaf (Abutilon theophrasti); experiment: Test A pre-/postemergence plant response
How it was run: as §1

[5] = system: morningglory (Ipomoea spp.); experiment: Test A pre-/postemergence plant response
How it was run: as §1

[6] = system: canarygrass (Phalaris minor); experiment: Test B postemergence plant response; settings: for Canarygrass plant response rating (0 to 100 scale): 0 is no effect
How it was run: (§2)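 Plants grown in peat/vermiculite medium were sprayed postemergence at 2–18 cm height (1- to 4-leaf stage). After 13–15 days in the greenhouse, response was rated visually against untreated controls on a 0–100 scale (0 no effect, 100 complete control).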

[7] = system: chickweed (Stellaria media); experiment: Test B postemergence plant response; settings: for Chickweed plant response rating (0 to 100 scale): 0 is no effect
How it was run: as §2

[8] = system: winter barley (Hordeum vulgare); experiment: Test B postemergence plant response; settings: for Barley plant response rating (0 to 100 scale): 0 is no effect
How it was run: as §2

[9] = system: windgrass (Apera spica-venti); experiment: Test B postemergence plant response; settings: for Windgrass plant response rating (0 to 100 scale): 0 is no effect
How it was run: as §2

[10] = Postemergence, 125 g ai/ha, 0 to 100 scale where 0 is no effect and 100 is complete control
[11] = Postemergence, 500 g ai/ha, visual injury, 0 to 100 scale (0 no effect, 100 complete control), approx. ten days
[12] = Preemergence, 125 g ai/ha, 0 to 100 scale, 0 = no effect, 100 = complete control
[13] = Preemergence, 500 g ai/ha, 0 to 100 scale, 0 = no effect, 100 = complete control
[14] = Postemergence, 31 g ai/ha, 0 to 100 scale (0 no effect, 100 complete control)
[15] = Postemergence, 125 g ai/ha, scale 0 to 100 (0 no effect, 100 complete control)
[16] = Postemergence, 250 g ai/ha, scale 0 to 100 (0 no effect, 100 complete control), 13 to 15 days
[17] = Postemergence, 62 g ai/ha, scale 0 to 100 (0 no effect, 100 complete control)
[18] = Postemergence, 500 g ai/ha, 0 to 100 scale, 0 = no effect, 100 = complete control, approx. ten days
[19] = Preemergence, 500 g ai/ha, visual injury, 0 to 100 scale (0 no effect, 100 complete control), approx. ten days
[20] = 31 g ai/ha, postemergence, scale 0 to 100, 0 is no effect, 100 is complete control
[21] = 62 g ai/ha, postemergence, 100 is complete control, 13 to 15 days
[22] = Postemergence, 125 g ai/ha, visual rating after 13 to 15 days, scale 0 (no effect) to 100 (complete control)
[23] = Postemergence, 250 g ai/ha, scale 0 to 100 (0 no effect, 100 complete control)

Structure (SMILES): CCCn1c(-c2ccccc2)ncc(C(=O)C2=C(O)C3CCC(C3)C2=O)c1=O (stereo not shown) [Compound 226]
- Plant response rating, Crabgrass, Large [1, 10]: 90
- Crabgrass, Large plant response rating [1, 11]: 100
- Plant response rating, Crabgrass, Large [1, 12]: 90
- Plant response rating, Crabgrass, Large [1, 13]: 100
- Plant response rating, Wheat [2, 10]: 0
- Wheat plant response rating [2, 11]: 50
- Plant response rating, Wheat [2, 12]: 0
- Plant response rating, Wheat [2, 13]: 10
- Plant response rating, Corn (corn (Zea mays); [10]): 10
- Corn plant response rating (corn (Zea mays); [11]): 60
- Plant response rating, Corn (corn (Zea mays); [12]): 0
- Plant response rating, Corn (corn (Zea mays); [13]): 0
- Plant response rating, Foxtail, Giant [3, 10]: 90
- Foxtail, Giant plant response rating [3, 11]: 90
- Plant response rating, Foxtail, Giant [3, 12]: 70
- Plant response rating, Foxtail, Giant [3, 13]: 90
- Plant response rating, Velvetleaf [4, 10]: 100
- Velvetleaf plant response rating [4, 11]: 100
- Plant response rating, Velvetleaf [4, 12]: 80
- Plant response rating, Velvetleaf [4, 13]: 100
- Plant response rating, Morningglory [5, 10]: 100
- Morningglory plant response rating [5, 11]: 100
- Plant response rating, Morningglory [5, 12]: 60
- Plant response rating, Morningglory [5, 13]: 80
- Plant response rating, Canarygrass [6, 14]: 5
- Plant response rating, Canarygrass [6, 15]: 50
- Plant response rating, Canarygrass [6, 16]: 60
- Plant response rating, Canarygrass [6, 17]: 30
- Plant response rating, Chickweed [7, 14]: 75
- Plant response rating, Chickweed [7, 15]: 85
- Plant response rating, Chickweed [7, 16]: 95
- Plant response rating, Chickweed [7, 17]: 75
- Plant response rating, Barley [8, 14]: 10
- Plant response rating, Barley [8, 15]: 30
- Plant response rating, Barley [8, 16]: 60
- Plant response rating, Barley [8, 17]: 30
- Plant response rating, Windgrass [9, 14]: 10
- Plant response rating, Windgrass [9, 16]: 85
- Plant response rating, Windgrass [9, 17]: 50

Structure (SMILES): CCOCCn1c(-c2ccccc2)ncc(C(=O)C2=C(O)CCCC2=O)c1=O [Compound 96]
- Plant response rating, Crabgrass, Large [1, 10]: 90
- Plant response rating, Crabgrass, Large [1, 18]: 100
- Plant response rating, Crabgrass, Large [1, 12]: 100
- Plant response rating, Crabgrass, Large [1, 19]: 100
- Plant response rating, Wheat [2, 10]: 0
- Plant response rating, Wheat [2, 18]: 20
- Plant response rating, Wheat [2, 12]: 0
- Plant response rating, Wheat [2, 19]: 0
- Plant response rating, Corn (corn (Zea mays); [10]): 0
- Plant response rating, Corn (corn (Zea mays); [18]): 20
- Plant response rating, Corn (corn (Zea mays); [12]): 0
- Plant response rating, Corn (corn (Zea mays); [19]): 10
- Plant response rating, Foxtail, Giant [3, 10]: 70
- Plant response rating, Foxtail, Giant [3, 18]: 90
- Plant response rating, Foxtail, Giant [3, 12]: 50
- Plant response rating, Foxtail, Giant [3, 19]: 80
- Plant response rating, Velvetleaf [4, 10]: 100
- Plant response rating, Velvetleaf [4, 18]: 100
- Plant response rating, Velvetleaf [4, 12]: 100
- Plant response rating, Velvetleaf [4, 19]: 100
- Plant response rating, Morningglory [5, 10]: 100
- Plant response rating, Morningglory [5, 18]: 100
- Plant response rating, Morningglory [5, 12]: 80
- Plant response rating, Morningglory [5, 19]: 80
- Plant response rating, Canarygrass [6, 20]: 0
- Canarygrass plant response rating (0 to 100 scale) [6, 21]: 5
- Plant response rating, Canarygrass [6, 22]: 30
- Plant response rating, Canarygrass [6, 23]: 45
- Plant response rating, Chickweed [7, 20]: 75
- Chickweed plant response rating (0 to 100 scale) [7, 21]: 95
- Plant response rating, Chickweed [7, 22]: 98
- Plant response rating, Chickweed [7, 23]: 100
- Plant response rating, Barley [8, 20]: 0
- Barley plant response rating (0 to 100 scale) [8, 21]: 0
- Plant response rating, Barley [8, 22]: 0
- Plant response rating, Barley [8, 23]: 5
- Plant response rating, Windgrass [9, 20]: 5
- Windgrass plant response rating (0 to 100 scale) [9, 21]: 10
- Plant response rating, Windgrass [9, 23]: 45

Structure (SMILES): O=C1CCCC(O)=C1C(=O)c1cnc(-c2ccccc2)n(C2CCCCCC2)c1=O [Compound 130]
- Plant response rating, Crabgrass, Large [1, 10]: 70
- Plant response rating, Crabgrass, Large [1, 18]: 100
- Plant response rating, Crabgrass, Large [1, 12]: 40
- Plant response rating, Crabgrass, Large [1, 19]: 100
- Plant response rating, Wheat [2, 10]: 0
- Plant response rating, Wheat [2, 18]: 30
- Plant response rating, Wheat [2, 12]: 0
- Plant response rating, Wheat [2, 19]: 0
- Plant response rating, Corn (corn (Zea mays); [10]): 10
- Plant response rating, Corn (corn (Zea mays); [18]): 50
- Plant response rating, Corn (corn (Zea mays); [12]): 20
- Plant response rating, Corn (corn (Zea mays); [19]): 30
- Plant response rating, Foxtail, Giant [3, 10]: 80
- Plant response rating, Foxtail, Giant [3, 18]: 90
- Plant response rating, Foxtail, Giant [3, 12]: 20
- Plant response rating, Foxtail, Giant [3, 19]: 90
- Plant response rating, Velvetleaf [4, 10]: 100
- Plant response rating, Velvetleaf [4, 18]: 100
- Plant response rating, Velvetleaf [4, 12]: 80
- Plant response rating, Velvetleaf [4, 19]: 90
- Plant response rating, Morningglory [5, 10]: 100
- Plant response rating, Morningglory [5, 18]: 100
- Plant response rating, Morningglory [5, 12]: 10
- Plant response rating, Morningglory [5, 19]: 80
- Canarygrass plant response rating (0 to 100 scale) [6, 21]: 20
- Plant response rating, Canarygrass [6, 14]: 5
- Plant response rating, Canarygrass [6, 15]: 20
- Plant response rating, Canarygrass [6, 16]: 25
- Chickweed plant response rating (0 to 100 scale) [7, 21]: 98
- Plant response rating, Chickweed [7, 14]: 98
- Plant response rating, Chickweed [7, 15]: 100
- Plant response rating, Chickweed [7, 16]: 100
- Barley plant response rating (0 to 100 scale) [8, 21]: 0
- Plant response rating, Barley [8, 14]: 0
- Plant response rating, Barley [8, 15]: 0
- Plant response rating, Barley [8, 16]: 0
- Windgrass plant response rating (0 to 100 scale) [9, 21]: 65
- Plant response rating, Windgrass [9, 14]: 60
- Plant response rating, Windgrass [9, 15]: 75
- Plant response rating, Windgrass [9, 16]: 85
